Source: US9937250B2, “Immunogenic tumor associated stromal cell antigen peptides and methods of their use” (University of Pittsburgh—Of the Commonwealth System of …, priority 2011, dated 2018)

Key:
[1] = test system: CD8+ T cells from HLA-A2+ normal donors or HLA-A2+ melanoma patients; experiment: In vitro sensitization of human CD8+ T cells with TASA peptide-pulsed autologous DC, IFN-γ ELISA against peptide-pulsed T2 cells; format: cell-based
Description: The indicated peptides were pulsed onto autologous DC and used to prime and boost CD8^+ T cells isolated from the peripheral blood of eight normal HLA-A2^+ donors or ten HLA-A2^+ patients with melanoma. Seven days after the primary in vitro sensitization (IVS) (melanoma patients) or a secondary IVS boost (normal donors), T cells were analyzed for their reactivity against HLA-A2^+ T2 cells pulsed with the relevant peptide vs. the negative control HIV-nef190-198 peptide. After 24 hours of co-culture, cell-free supernatants were analyzed for levels of secreted IFN-γ using a commercial ELISA. Data are reported in Bar and Whisker plots, with p-values provided for paired pre- versus post-IVS data from normal donors and patients. In addition, p<0.05 was detected for MEL-Post versus ND-Post for the following peptides: DLK1 (309), NG2 (770), NG2 (2238), PDGFRβ (891) and RGS5 (5).
In vitro assessment of human CD8^+ T cell responses against TASA- or TAA-derived peptides. Peripheral blood mononuclear cells (PBMC) were obtained by venipuncture or leukapheresis from HLA-A2^+ normal donors or HLA-A2^+ melanoma patients with written consent under IRB-approved protocols (Table 3). CD8^+ T cells were then isolated by MACS (Miltenyi Biotec, Auburn, Calif.) and either not stimulated or stimulated with autologous, TASA peptide-pulsed DC as previously described (Tatsumi et al., Cancer Res., 63:4481-4489, 2003). Normal donor T cells were stimulated with TASA peptide-pulsed DC twice on a weekly schedule, with responder T cells harvested for analysis of their specificity 5 days after the booster stimulation (i.e. day 12 of T cell-DC co-culture). Melanoma patient CD8^+ T cells were analyzed after a single round of stimulation with TASA peptide-pulsed, autologous DC (i.e. day 5 of T cell-DC co-culture) as indicated. For DC-based stimulations, DC were pulsed with an equimolar (1 μM each) pool of the TASA peptides (Table 4) for 4 h at 37° C. at 5% CO2 tension. These antigen-loaded DC were then used to stimulate autologous CD8^+ T cells at a T cell-to-DC ratio of 10:1 to generate a bulk population of responder T cells. T cells were maintained in IMDM media supplemented with 10% human AB serum, 100 U/ml penicillin, […], 10 mM L-glutamine and MEM non-essential amino acids (all reagents from Invitrogen, except human AB serum that was purchased from Sigma-Aldrich, St. Louis, Mo.). Responder CD8^+ T cells were analyzed for reactivity against control (HLA-A2^+) T2 cells or T2 cells pulsed with individual TASA or TAA peptides (1 μM for 4 h at 37° C.) at a CD8^+ T cell-to-T2 cell ratio of 5:1 for 24 h. Harvested cell-free supernatants were consequently assessed for hIFN-γ content using a specific ELISA (BD Biosciences, San Diego, Calif.) with a lower detection limit of 4.7 pg/ml.
CD8^+ T cells from HLA-A2^+ normal donors or HLA-A2^+ melanoma patients recognize TASA-derived peptides in vitro. To assess whether the TASA-derived peptides identified in the HHD tumor model were also capable of being recognized by human CD8^+ T cells, IVS was performed using T cells isolated from the peripheral blood of HLA-A2^+ donors or HLA-A2^+ patients with melanoma. DC were pulsed with peptides derived from a given TASA for 4 h at 37° C., then washed and used as stimulator cells for autologous CD8^+ T cells. In cases where more than one peptide existed for a given protein, DC were pulsed with an equimolar (10 μM) mixture of each peptide. Two rounds of IVS using TASA for normal donors and a single-round of IVS using TASA for melanoma patients was applied. HLA-A2^+ normal donors (FIG. 4; Tables 4, 5A and 5B) and melanoma patients (FIG. 4; Tables 4, 5A and 5B) were each capable of recognizing many of the TASA-derived peptides.

[2] = test system: MC38 tumor microenvironment; experiment: Fluorescence imaging of MC38 tumor sections after prophylactic vaccination; format: in vivo, HHD mice; conditions: day 14 tumors; p<0.05 vs. untreated or DC.IL12/no peptide
Description: Day 14 MC38 tumors were harvested from HHD mice that had been vaccinated as outlined in FIG. 9B with the indicated peptides (or control PBS or DC.IL12 alone=No peptide). In FIG. 10A, six-micron tissue sections were co-stained with anti-CD8 (green) and anti-NG2 (red) antibodies and imaged by fluorescence microscopy. Blue signal=nuclear counterstain using 4′,6-diamidino-2-phenylindole (DAPI). FIG. 10B provides a summary of the mean+/−SD number of CD8^+ cells per high-power field (HPF) in MC38 tumors isolated from control or vaccinated mice as depicted in FIG. 10A. In FIG. 10C, tissue sections were co-stained with anti-CD31 (green) and anti-NG2 (red) antibodies and imaged by fluorescence microscopy. Blue signal=nuclear counterstain using DAPI. In FIG. 10D, the mean+/−SD number of CD31^+ vessels per HPF of MC38 tumors in control or vaccinated mice are summarized Representative data is depicted from 1 of 3 independent experiments performed. *p<0.05 versus DC only or untreated control mice.
Fluorescence Imaging of Tumor Sections. Tumor tissue samples were prepared and 6 micron sections prepared as previously reported (Komita et al., Cancer Res., 68:8076-8084, 2008). The following Abs were used: (for T cell analyses), rabbit anti-mouse NG2 (Millipore, Bedford, Mass.) and alexa488-conjugated anti-CD4 or -CD8β antibodies or matching isotype controls (all from BD-Biosciences); (for vascular analyses), rat anti-mouse CD31 (BD-Biosciences) and rabbit anti-mouse NG2 (Millipore) Abs; (for TBVA), rat anti-mouse CD31 (BD-Biosciences) and guinea pig anti-mouse NG2 Abs, along with anti-TBVA as described in Example 1. Imaging was performed using an Olympus Fluoview 500 Confocal microscope (Olympus America, Center Valley, Pa.).
Protective vaccines incorporating TBVA peptides promote enhanced infiltration of the TME by CD8^+ T cells in association with an inhibition of tumor vascularity. MC38 tumor lesions from all cohorts of animals with evidence of disease on day 14 (post-tumor inoculation) were isolated and immunofluorescence microscopy on tumor sections was performed. […] In marked contrast, CD4^+ T cell infiltration in the TME was sparse and the data were indistinguishable when comparing control vs. vaccinated mice (FIG. 17). […] Correlative analyses indicated an association between the anti-tumor efficacy of vaccines and their ability to promote CD8^+ T cell infiltration and reduced vascularity in the TME (FIG. 16).

RGS5: RGS5-derived peptide 5-13 pulsed onto DC or DC.IL12 (LAALPHSCL; listed as Homo sapiens)
Specific CD8+ T cell Production of IFN-γ in Response to TASA ([1]; donor Mel1, melanoma patient): + (Human responses were designated as + if T cell reactivity against T2 cells presenting the indicated peptide (IFN-γ ELISA) was >30 pg/ml and more than 2 fold higher than reactivity versus T2 cells pulsed with the negative control HIV-nef190-198 peptide) | Specific CD8+ T cell Production of IFN-γ in Response to TASA ([1]; donor Mel2, melanoma patient): + (Human responses were designated as + if T cell reactivity against T2 cells presenting the indicated peptide (IFN-γ ELISA) was >30 pg/ml and more than 2 fold higher than reactivity versus T2 cells pulsed with the negative control HIV-nef190-198 peptide) | Specific CD8+ T cell Production of IFN-γ in Response to TASA ([1]; donor Mel4, melanoma patient): + (Human responses were designated as + if T cell reactivity against T2 cells presenting the indicated peptide (IFN-γ ELISA) was >30 pg/ml and more than 2 fold higher than reactivity versus T2 cells pulsed with the negative control HIV-nef190-198 peptide) | Specific CD8+ T cell Production of IFN-γ in Response to TASA ([1]; donor Mel6, melanoma patient): + (Human responses were designated as + if T cell reactivity against T2 cells presenting the indicated peptide (IFN-γ ELISA) was >30 pg/ml and more than 2 fold higher than reactivity versus T2 cells pulsed with the negative control HIV-nef190-198 peptide) | Specific CD8+ T cell Production of IFN-γ in Response to TASA ([1]; donor Mel8, melanoma patient): + (Human responses were designated as + if T cell reactivity against T2 cells presenting the indicated peptide (IFN-γ ELISA) was >30 pg/ml and more than 2 fold higher than reactivity versus T2 cells pulsed with the negative control HIV-nef190-198 peptide) | Suppression in CD31+ vessel counts in the MC38 TME [2]: greatest degree of suppression in CD31^+ vessel counts

TEM1: TEM1-derived peptide 691-700 pulsed onto DC or DC.IL12 (LLVPTCVFLV; listed as Homo sapiens)
Specific CD8+ T cell Production of IFN-γ in Response to TASA ([1]; donor Mel1, melanoma patient): + (Human responses were designated as + if T cell reactivity against T2 cells presenting the indicated peptide (IFN-γ ELISA) was >30 pg/ml and more than 2 fold higher than reactivity versus T2 cells pulsed with the negative control HIV-nef190-198 peptide) | Specific CD8+ T cell Production of IFN-γ in Response to TASA ([1]; donor Mel4, melanoma patient): + (Human responses were designated as + if T cell reactivity against T2 cells presenting the indicated peptide (IFN-γ ELISA) was >30 pg/ml and more than 2 fold higher than reactivity versus T2 cells pulsed with the negative control HIV-nef190-198 peptide) | Specific CD8+ T cell Production of IFN-γ in Response to TASA ([1]; donor Mel7, melanoma patient): + (Human responses were designated as + if T cell reactivity against T2 cells presenting the indicated peptide (IFN-γ ELISA) was >30 pg/ml and more than 2 fold higher than reactivity versus T2 cells pulsed with the negative control HIV-nef190-198 peptide) | Specific CD8+ T cell Production of IFN-γ in Response to TASA ([1]; donor Mel8, melanoma patient): + (Human responses were designated as + if T cell reactivity against T2 cells presenting the indicated peptide (IFN-γ ELISA) was >30 pg/ml and more than 2 fold higher than reactivity versus T2 cells pulsed with the negative control HIV-nef190-198 peptide) | Specific CD8+ T cell Production of IFN-γ in Response to TASA ([1]; donor ND1, normal donor): + (Human responses were designated as + if T cell reactivity against T2 cells presenting the indicated peptide (IFN-γ ELISA) was >30 pg/ml and more than 2 fold higher than reactivity versus T2 cells pulsed with the negative control HIV-nef190-198 peptide) | Specific CD8+ T cell Production of IFN-γ in Response to TASA ([1]; donor ND2, normal donor): + (Human responses were designated as + if T cell reactivity against T2 cells presenting the indicated peptide (IFN-γ ELISA) was >30 pg/ml and more than 2 fold higher than reactivity versus T2 cells pulsed with the negative control HIV-nef190-198 peptide) | Specific CD8+ T cell Production of IFN-γ in Response to TASA ([1]; donor ND3, normal donor): + (Human responses were designated as + if T cell reactivity against T2 cells presenting the indicated peptide (IFN-γ ELISA) was >30 pg/ml and more than 2 fold higher than reactivity versus T2 cells pulsed with the negative control HIV-nef190-198 peptide) | Specific CD8+ T cell Production of IFN-γ in Response to TASA ([1]; donor ND5, normal donor): + (Human responses were designated as + if T cell reactivity against T2 cells presenting the indicated peptide (IFN-γ ELISA) was >30 pg/ml and more than 2 fold higher than reactivity versus T2 cells pulsed with the negative control HIV-nef190-198 peptide) | Suppression in CD31+ vessel counts in the MC38 TME [2]: greatest degree of suppression in CD31^+ vessel counts

LAALPHSCL (listed as Homo sapiens)
Specific CD8+ T Cell Response, HLA-A2+ Normal Donors (of 8) ([1]; number of responding donors of 8, response = IFN-γ >30 pg/ml and >2 fold HIV-nef control): 0 | Specific CD8+ T Cell Response, HLA-A2+ Melanoma Patients (of 10) ([1]; number of responding patients of 10, response = IFN-γ >30 pg/ml and >2 fold HIV-nef control): 5
